Consider six molecules from US12662489B2 (Sitryx Therapeutics Limited, priority 2023, dated 2026).

Experiment [1] has as its target T1, MTHFD1 recombinant human enzyme (Homo sapiens, UniProt P11586).
T1 sequence (P11586 2-291 limits assumed): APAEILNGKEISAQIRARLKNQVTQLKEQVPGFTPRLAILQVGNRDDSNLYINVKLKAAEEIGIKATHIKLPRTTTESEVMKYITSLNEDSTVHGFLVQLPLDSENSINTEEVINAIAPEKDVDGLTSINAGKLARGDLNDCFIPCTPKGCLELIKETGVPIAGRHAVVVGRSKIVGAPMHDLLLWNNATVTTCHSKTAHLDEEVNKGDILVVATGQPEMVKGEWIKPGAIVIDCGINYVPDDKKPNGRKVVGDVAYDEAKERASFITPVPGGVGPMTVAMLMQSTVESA
The experiment can be described thus: MTHFD1 inhibition assay (NAD(P)H-Glo luminescence). The conditions noted are these: MTHFD1 IC50, recombinant human enzyme 200 nM, NADP, band.

Experiment [2] deals with T2, MTHFD2 recombinant human enzyme (Homo sapiens, UniProt P13995).
T2 sequence (P13995 36-350): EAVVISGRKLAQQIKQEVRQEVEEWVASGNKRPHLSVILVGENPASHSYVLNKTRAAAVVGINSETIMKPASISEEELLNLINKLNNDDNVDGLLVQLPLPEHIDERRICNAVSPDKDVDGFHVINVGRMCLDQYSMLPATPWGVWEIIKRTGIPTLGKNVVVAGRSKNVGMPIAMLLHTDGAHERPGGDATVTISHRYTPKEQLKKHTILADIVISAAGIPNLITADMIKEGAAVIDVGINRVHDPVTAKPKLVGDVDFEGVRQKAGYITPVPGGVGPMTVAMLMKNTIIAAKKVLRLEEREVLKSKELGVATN
Nature of the experiment: MTHFD2 inhibition assay (NAD(P)H-Glo luminescence). The conditions noted are these: for MTHFD1/MTHFD2 IC50 ratio: selectivity of MTHFD2 inhibition over MTHFD1, band.

For the molecule `COC[C@H]1CN(c2cc(C)c3c4c(c(=O)oc3c2C)CN(C(=O)c2cc(N(C)C)c(C(=O)NS(=O)(=O)N3CCC(OC)CC3)cc2F)CC4)CCN1C` [Example 289, (R)-2-(dimethylamino)-5-fluoro-4-(8-(3-(methoxymethyl)-4-methylpiperazin-1-yl)-7,10-dimethyl-5-oxo-1,3,4,5-tetrahydro-2H-chromeno[3,4-c]pyridine-3-carbonyl)-N-((4-methoxypiperidin-1-yl)sulfonyl)benzamide], the half-maximal inhibitory concentration (IC50) (as a rule, the concentration at which inhibition is half-maximal) in experiment [1] was 100 to 1000 nM. Also, in experiment [2], the IC50 is 10 to 100 nM and the “MTHFD1/MTHFD2 IC50 ratio” value is recorded as “J (>30)”.
Regarding `Cc1c(N2CCN(C)[C@@H](COC(C)C)C2)ccc2c3c(c(=O)oc12)CN(C(=O)c1ccc(C(=O)NS(=O)(=O)N2CCCC2)c(OC2CCC2)c1F)CC3` [Example 192, (R)-2-cyclobutoxy-3-fluoro-4-(8-(3-(isopropoxymethyl)-4-methylpiperazin-1-yl)-7-methyl-5-oxo-1,3,4,5-tetrahydro-2H-chromeno[3,4-c]pyridine-3-carbonyl)-N-(pyrrolidin-1-ylsulfonyl)benzamide], the IC50 in experiment [1] and in experiment [2] was 100 to 1000 nM throughout. Moreover, in experiment [2], the “MTHFD1/MTHFD2 IC50 ratio” value is on record as “F (<3)”.
`COC[C@H]1CN(c2cc(C)c3c4c(c(=O)oc3c2C)CN(C(=O)c2ccc(C(=O)NS(=O)(=O)N(C)C)c(N(C)C3CCC3)c2)CC4)CCN1C` [Example 55, (R)-2-(cyclobutyl(methyl)amino)-N-(N,N-dimethylsulfamoyl)-4-(8-(3-(methoxymethyl)-4-methylpiperazin-1-yl)-7,10-dimethyl-5-oxo-1,3,4,5-tetrahydro-2H-chromeno[3,4-c]pyridine-3-carbonyl)benzamide]: the results for the IC50 in experiment [1] and in experiment [2] were 10 to 100 nM and 1 to 10 nM, respectively. For the same molecule, the “MTHFD1/MTHFD2 IC50 ratio” value in experiment [2] is “G (^ 3 to 9.0)”.
The corresponding values for `COC[C@H]1CN(c2cc(C)c3c4c(c(=O)oc3c2C)CN(C(=O)c2ccc(C(=O)NS(=O)(=O)N(C)C)c(N3C5CCC3CC5)c2F)CC4)CCN1C` [Example 74, (R)-2-(7-azabicyclo[2.2.1]heptan-7-yl)-N-(N,N-dimethylsulfamoyl)-3-fluoro-4-(8-(3-(methoxymethyl)-4-methylpiperazin-1-yl)-7,10-dimethyl-5-oxo-1,3,4,5-tetrahydro-2H-chromeno[3,4-c]pyridine-3-carbonyl)benzamide] are 1 to 10 nM, 1 to 10 nM and “F (<3)”.
Regarding `COC[C@H]1CN(c2cc(C)c3c4c(c(=O)oc3c2C)CN(C(=O)c2ccc(C(=O)NS(=O)(=O)N3CCCC3)c(N3CC5CC5C3)c2)CC4)CCN1C` (stereo partly drawn) [Example 126, 2-(3-azabicyclo[3.1.0]hexan-3-yl)-4-(8-((R)-3-(methoxymethyl)-4-methylpiperazin-1-yl)-7,10-dimethyl-5-oxo-1,3,4,5-tetrahydro-2H-chromeno[3,4-c]pyridine-3-carbonyl)-N-(pyrrolidin-1-ylsulfonyl)benzamide], the IC50 in experiment [1] lay within 10 to 100 nM. Besides, in experiment [2], the IC50 lay within 10 to 100 nM and the “MTHFD1/MTHFD2 IC50 ratio” value is reported as “F (<3)”.
As for `COC[C@H]1CN(c2cc(C)c3c4c(c(=O)oc3c2C)CN(C(=O)c2cc(C)c(C(=O)NS(=O)(=O)N(C)C)c(N3CCCC3)c2)CC4)CCN1C` [Example 106, (R)-N-(N,N-dimethylsulfamoyl)-4-(8-(3-(methoxymethyl)-4-methylpiperazin-1-yl)-7,10-dimethyl-5-oxo-1,3,4,5-tetrahydro-2H-chromeno[3,4-c]pyridine-3-carbonyl)-2-methyl-6-(pyrrolidin-1-yl)benzamide], the IC50 in experiment [1] lay in the range of 100 to 1000 nM; in experiment [2], 10 to 100 nM. Further, the “MTHFD1/MTHFD2 IC50 ratio” value in experiment [2] is “H (>9.0 to 30)”.
